Laboratory results as given in US8247211B2, “Glycopeptide antibiotics” (American Cyanamid Company, priority 2001, dated 2012).
Converted amounts (≈) assume the structure as drawn. One block for each compound: values may come before it. Numbered stars: 1 amine (or outer) side, 2 acyl side, 3 side chain; on linkers, the order of the positions; unused ones are H or OH. Square brackets hold non-standard residues; d marks the D form. Peptide text beside a SMILES is read from it. ξ: configuration not given here. X1 = N=C1NCC(C(O)C(N[*:1])C(=O)[*:2])N1C1OC(CO)C(O)C(O)C1O; ξEnduracididine(βξ-OH,4'ξ) = N=C1NCC(C(O)C(N)C(=O)O)N1

Legend:
Test in all cases: In vitro antibacterial evaluation: minimum inhibitory concentration (MIC), broth dilution method
Assay type in all cases: cell-based
Staphylococcus sp. = conditions: 18 hours at 35° C.
Method in brief: (§1)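 NCCLS M7-A2 broth dilution with Mueller-Hinton II, testing 64-0.06 μg/mL antibiotic against 5×10^5 CFU/mL inocula. Test strains include recent methicillin-, penicillin- or vancomycin-resistant clinical isolates. MIC is the lowest concentration preventing growth.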

Enterococcus sp. = test system: Enterococcus sp.
Method in brief: as §1

Escherichia coli [1] = test system: Escherichia coli
Method in brief: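 Values are minimum inhibitory concentrations, meaning the smallest antibiotic concentration that stops growth of the organism. They come from broth dilution in Muller-Hinton II […] per NCCLS guidance (M7-A2), using 5×10^5 CFU/mL and concentrations from 64 to 0.06 μg/mL.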

Escherichia coli [2] = test system: Escherichia coli; remark: listed apart in the source

- MIC Coagulase Negative Staphylococcus (GC 4547) (Staphylococcus sp.): 4 µg/mL (≈ 2.9 µM)
- MIC Coagulase Negative Staphylococcus (GC 4547) (Staphylococcus sp.; broth dilution): 4 µg/mL (≈ 2.9 µM)
- MIC Coagulase Negative Staphylococcus (GC 4548) (Staphylococcus sp.): 2 µg/mL (≈ 1.45 µM)
- MIC Coagulase Negative Staphylococcus (GC 4548) (Staphylococcus sp.; broth dilution): 2 µg/mL (≈ 1.45 µM)
- MIC Coagulase Negative Staphylococcus (GC 4549) (Staphylococcus sp.): 2 µg/mL (≈ 1.45 µM)
- MIC Coagulase Negative Staphylococcus (GC 4549) (Staphylococcus sp.; broth dilution): 2 µg/mL (≈ 1.45 µM)
- MIC Coagulase Negative Staphylococcus (GC 4551) (Staphylococcus sp.): 8 µg/mL (≈ 5.8 µM)
- MIC Coagulase Negative Staphylococcus (GC 4551) (Staphylococcus sp.; broth dilution): 8 µg/mL (≈ 5.8 µM)
- MIC Coagulase Negative Staphylococcus (GC 6257) (Staphylococcus sp.): 2 µg/mL (≈ 1.45 µM)
- MIC Coagulase Negative Staphylococcus (GC 6257) (Staphylococcus sp.; broth dilution): 2 µg/mL (≈ 1.45 µM)
- MIC Staphylococcus aureus (ATCC 29213) (Staphylococcus sp.): 4 µg/mL (≈ 2.9 µM)
- MIC Staphylococcus aureus (ATCC 29213) (Staphylococcus sp.; broth dilution): 4 µg/mL (≈ 2.9 µM)
- MIC Staphylococcus aureus (GC 1131) (Staphylococcus sp.): 8 µg/mL (≈ 5.8 µM)
- MIC Staphylococcus aureus (GC 1131) (Staphylococcus sp.; broth dilution): 8 µg/mL (≈ 5.8 µM)
- MIC Staphylococcus aureus (GC 3051) (Staphylococcus sp.): 2 µg/mL (≈ 1.45 µM)
- MIC Staphylococcus aureus (GC 3051) (Staphylococcus sp.; broth dilution): 2 µg/mL (≈ 1.45 µM)
- MIC Staphylococcus aureus (GC 3053) (Staphylococcus sp.): 8 µg/mL (≈ 5.8 µM)
- MIC Staphylococcus aureus (GC 3053) (Staphylococcus sp.; broth dilution): 8 µg/mL (≈ 5.8 µM)
- MIC Staphylococcus aureus (GC 4541) (Staphylococcus sp.): 4 µg/mL (≈ 2.9 µM)
- MIC Staphylococcus aureus (GC 4541) (Staphylococcus sp.; broth dilution): 4 µg/mL (≈ 2.9 µM)
- MIC Staphylococcus aureus (GC 4542) (Staphylococcus sp.): 4 µg/mL (≈ 2.9 µM)
- MIC Staphylococcus aureus (GC 4542) (Staphylococcus sp.; broth dilution): 4 µg/mL (≈ 2.9 µM)
- MIC Staphylococcus aureus (GC 4544) (Staphylococcus sp.): 4 µg/mL (≈ 2.9 µM)
- MIC Staphylococcus aureus (GC 4544) (Staphylococcus sp.; broth dilution): 4 µg/mL (≈ 2.9 µM)
- MIC Staphylococcus aureus (GC 4545) (Staphylococcus sp.): 4 µg/mL (≈ 2.9 µM)
- MIC Staphylococcus aureus (GC 4545) (Staphylococcus sp.; broth dilution): 4 µg/mL (≈ 2.9 µM)
- MIC Staphylococcus aureus-SMITH (GC 4543) (Staphylococcus sp.): 4 µg/mL (≈ 2.9 µM)
- MIC Staphylococcus aureus-SMITH (GC 4543) (Staphylococcus sp.; broth dilution): 4 µg/mL (≈ 2.9 µM)
- MIC Enterococcus avium (GC 4558) (Enterococcus sp.): 32 µg/mL (≈ 23.2 µM)
- MIC Enterococcus faecalis (ATCC 29212) (Enterococcus sp.): 32 µg/mL (≈ 23.2 µM)
- MIC Enterococcus faecalis (GC 4553) (Enterococcus sp.): 32 µg/mL (≈ 23.2 µM)
- MIC Enterococcus faecalis (GC 4554) (Enterococcus sp.): 32 µg/mL (≈ 23.2 µM)
- MIC Enterococcus faecalis (GC 6189) (Enterococcus sp.): 32 µg/mL (≈ 23.2 µM)
- MIC Enterococcus faecium (GC 2243) (Enterococcus sp.): 32 µg/mL (≈ 23.2 µM)
- MIC Enterococcus faecium (GC 4556) (Enterococcus sp.): 32 µg/mL (≈ 23.2 µM)
- MIC Enterococcus faecium (GC 4557) (Enterococcus sp.): 8 µg/mL (≈ 5.8 µM)
- MIC Escherichia coli (GC 4559) (Escherichia coli [1]): >64 µg/mL
- MIC Escherichia coli (GC 4560) (Escherichia coli [1]): 2 µg/mL (≈ 1.45 µM)
- MIC Escherichia coli (ATCC 25922) (Escherichia coli [2]): >64 µg/mL
SMILES: CCC(C)C(=O)OC1C(CO)OC(OC2C(CO)OC(Oc3ccc(CC4NC(=O)C(C(C)c5ccccc5)NC(=O)CNC(=O)C(CO)NC(=O)C(C(O)C5CNC(=N)N5C5OC(CO)C(O)C(O)C5O)NC(=O)C(C(O)C5CNC(=N)N5)NC4=O)cc3)C(O)C2O)C(O)C1O (stereo not drawn) [Example 278c, Cyclo[glycyl-β-methylphenylalanyl-O-[4-O-[4-O-(2-methylbutanoyl)hexopyranosyl]hexopyranosyl]tyrosyl-3-(2-iminoimidazolidin-4-yl)seryl-3-(3-hexopyranosyl-2-iminoimidazolidin-4-yl)serylseryl]]
- MIC Staphylococcus haemolyticus (GC 4546) (Staphylococcus sp.): 2 µg/mL (≈ 1.45 µM)
- MIC Staphylococcus haemolyticus (GC 4546) (Staphylococcus sp.; broth dilution): 2 µg/mL (≈ 1.45 µM)

- MIC Coagulase Negative Staphylococcus (GC 4547) (Staphylococcus sp.): 64 µg/mL (≈ 66.9 µM)
- MIC Coagulase Negative Staphylococcus (GC 4547) (Staphylococcus sp.; broth dilution): 64 µg/mL (≈ 66.9 µM)
- MIC Coagulase Negative Staphylococcus (GC 4548) (Staphylococcus sp.): >64 µg/mL
- MIC Coagulase Negative Staphylococcus (GC 4548) (Staphylococcus sp.; broth dilution): >64 µg/mL
- MIC Coagulase Negative Staphylococcus (GC 4549) (Staphylococcus sp.): 64 µg/mL (≈ 66.9 µM)
- MIC Coagulase Negative Staphylococcus (GC 4549) (Staphylococcus sp.; broth dilution): 64 µg/mL (≈ 66.9 µM)
- MIC Coagulase Negative Staphylococcus (GC 4551) (Staphylococcus sp.): >64 µg/mL
- MIC Coagulase Negative Staphylococcus (GC 4551) (Staphylococcus sp.; broth dilution): >64 µg/mL
- MIC Coagulase Negative Staphylococcus (GC 6257) (Staphylococcus sp.): 64 µg/mL (≈ 66.9 µM)
- MIC Coagulase Negative Staphylococcus (GC 6257) (Staphylococcus sp.; broth dilution): 64 µg/mL (≈ 66.9 µM)
- MIC Staphylococcus aureus (ATCC 29213) (Staphylococcus sp.): >64 µg/mL
- MIC Staphylococcus aureus (ATCC 29213) (Staphylococcus sp.; broth dilution): >64 µg/mL
- MIC Staphylococcus aureus (GC 1131) (Staphylococcus sp.): >64 µg/mL
- MIC Staphylococcus aureus (GC 1131) (Staphylococcus sp.; broth dilution): >64 µg/mL
- MIC Staphylococcus aureus (GC 3051) (Staphylococcus sp.): >64 µg/mL
- MIC Staphylococcus aureus (GC 3051) (Staphylococcus sp.; broth dilution): >64 µg/mL
- MIC Staphylococcus aureus (GC 3053) (Staphylococcus sp.): >64 µg/mL
- MIC Staphylococcus aureus (GC 3053) (Staphylococcus sp.; broth dilution): >64 µg/mL
- MIC Staphylococcus aureus (GC 4541) (Staphylococcus sp.): >64 µg/mL
- MIC Staphylococcus aureus (GC 4541) (Staphylococcus sp.; broth dilution): >64 µg/mL
- MIC Staphylococcus aureus (GC 4542) (Staphylococcus sp.): >64 µg/mL
- MIC Staphylococcus aureus (GC 4542) (Staphylococcus sp.; broth dilution): >64 µg/mL
- MIC Staphylococcus aureus (GC 4544) (Staphylococcus sp.): >64 µg/mL
- MIC Staphylococcus aureus (GC 4544) (Staphylococcus sp.; broth dilution): >64 µg/mL
- MIC Staphylococcus aureus (GC 4545) (Staphylococcus sp.): >64 µg/mL
- MIC Staphylococcus aureus (GC 4545) (Staphylococcus sp.; broth dilution): >64 µg/mL
- MIC Staphylococcus aureus-SMITH (GC 4543) (Staphylococcus sp.): >64 µg/mL
- MIC Staphylococcus aureus-SMITH (GC 4543) (Staphylococcus sp.; broth dilution): >64 µg/mL
- MIC Enterococcus avium (GC 4558) (Enterococcus sp.): >64 µg/mL
- MIC Enterococcus faecalis (ATCC 29212) (Enterococcus sp.): >64 µg/mL
- MIC Enterococcus faecalis (GC 4553) (Enterococcus sp.): >64 µg/mL
- MIC Enterococcus faecalis (GC 4554) (Enterococcus sp.): >64 µg/mL
- MIC Enterococcus faecalis (GC 6189) (Enterococcus sp.): >64 µg/mL
- MIC Enterococcus faecium (GC 2243) (Enterococcus sp.): >64 µg/mL
- MIC Enterococcus faecium (GC 4556) (Enterococcus sp.): >64 µg/mL
- MIC Enterococcus faecium (GC 4557) (Enterococcus sp.): 64 µg/mL (≈ 66.9 µM)
- MIC Escherichia coli (GC 4559) (Escherichia coli [1]): 64 µg/mL (≈ 66.9 µM)
- MIC Escherichia coli (GC 4560) (Escherichia coli [1]): 32 µg/mL (≈ 33.4 µM)
- MIC Escherichia coli (ATCC 25922) (Escherichia coli [2]): 64 µg/mL (≈ 66.9 µM)
SMILES: N=C1NCC(C(O)C2NC(=O)C(Cc3ccc(O)cc3)NC(=O)C(Cc3ccccc3)NC(=O)CNC(=O)C(CO)NC(=O)C(C(O)C3CNC(=N)N3C3OC(CO)C(O)C(O)C3O)NC2=O)N1 (stereo not drawn) [Example 279a, Cyclo[glycylphenylalanyltyrosyl-3-(2-iminoimidazolidin-4-yl)seryl-3-(3-hexopyranosyl-2-iminoimidazolidin-4-yl)serylseryl]] (cyclo(GFY[ξEnduracididine(βξ-OH,4'ξ)][X1]S); configuration not given here)
- MIC Staphylococcus haemolyticus (GC 4546) (Staphylococcus sp.): 64 µg/mL (≈ 66.9 µM)
- MIC Staphylococcus haemolyticus (GC 4546) (Staphylococcus sp.; broth dilution): 64 µg/mL (≈ 66.9 µM)
